From US7572819B2, “Compounds which potentiate glutamate receptor and uses thereof in medicine” (Glaxo Group Limited, priority 2004, dated 2009)

Target: T1, human GluR2 flip (unedited) AMPA receptor subunit (Homo sapiens, UniProt P42262)
T1 construct: expressed in transfected cells; host or cells: HEK 293 cells, stably expressing or transiently transfected
Assay: Calcium influx fluorescence assay (FLUO4, FLIPR)
Format: cell-based
Settings: HEK 293 cells expressing human GluR2 flip (unedited); 100 μM glutamate; peak fluorescence
Experimental: The ability of the compounds of the invention to potentiate glutamate receptor-mediated response were determined a) by using fluorescent calcium-indicator dyes such as FLUO4 and additionally for some example compounds, b) by measuring glutamate-evoked current recorded from human GluR2 flip unedited HEK293 cells. • a) Calcium Influx Fluorescence Assay
384 well plates were prepared containing confluent monolayer of HEK 293 cells either stably expressing or transiently transfected with human GluR2 flip (unedited) AMPA receptor subunit. These cells form functional homotetrameric AMPA receptors. […]
The cell plate was then transferred into a fluorescence imaging plate based reader [such as the FLIPR384 (Molecular Devices)]. A baseline fluorescence reading was taken over a 10 to 240 second period, and then 10 μL from each plate containing a compound of the invention made up in standard buffer solution (in a concentration range from 100 μM to 10 pM) was added (to give a final concentration in the range 30 μM to 3 pM). The fluorescence was read over 5 minute period. […] The fluoresecence was then read over a 4 minute period. The activities of the compounds of the invention and reference compounds were determined by measuring peak fluorescence after the last addition. […]

T1 sequence (P42262 25-883 isoform P42262-2 limits assumed): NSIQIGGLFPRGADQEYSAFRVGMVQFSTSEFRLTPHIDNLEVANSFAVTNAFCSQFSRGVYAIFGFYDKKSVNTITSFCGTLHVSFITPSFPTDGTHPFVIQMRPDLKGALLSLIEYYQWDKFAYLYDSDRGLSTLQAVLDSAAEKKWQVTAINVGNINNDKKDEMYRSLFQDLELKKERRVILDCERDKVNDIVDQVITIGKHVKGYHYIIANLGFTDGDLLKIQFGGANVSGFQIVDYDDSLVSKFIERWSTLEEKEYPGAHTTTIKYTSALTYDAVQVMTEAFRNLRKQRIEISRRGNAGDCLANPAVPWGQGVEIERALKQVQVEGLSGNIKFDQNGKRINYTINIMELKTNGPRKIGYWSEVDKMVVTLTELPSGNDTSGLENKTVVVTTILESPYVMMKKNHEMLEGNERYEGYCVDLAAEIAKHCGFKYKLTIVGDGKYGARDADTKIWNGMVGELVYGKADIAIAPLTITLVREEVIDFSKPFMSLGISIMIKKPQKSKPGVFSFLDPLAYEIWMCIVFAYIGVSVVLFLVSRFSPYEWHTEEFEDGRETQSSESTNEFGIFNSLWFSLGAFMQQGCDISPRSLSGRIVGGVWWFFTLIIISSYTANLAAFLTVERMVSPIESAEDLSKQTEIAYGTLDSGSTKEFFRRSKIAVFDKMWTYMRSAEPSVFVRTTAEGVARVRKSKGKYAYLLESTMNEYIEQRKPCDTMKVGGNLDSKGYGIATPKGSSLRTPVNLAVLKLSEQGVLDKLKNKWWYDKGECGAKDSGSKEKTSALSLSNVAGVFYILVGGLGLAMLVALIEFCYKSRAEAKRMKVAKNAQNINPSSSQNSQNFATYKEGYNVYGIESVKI

EC50: 10 µM
Compound: CC(C)S(=O)(=O)NC1Cc2ccc(-c3ccsc3)cc2C1 (stereo not shown) [Example 4, N-[5-(3-thienyl)-2,3-dihydro-1H-inden-2-yl]-2-propanesulfonamide]
